Assay results taken from ChEMBL document CHEMBL1146198, “In vitro studies with DQ-113 and comparison fluoroquinolones to determine propensities to select resistance in gram-positive cocci” (2007).

Columns and labels:
Assay type in all cases: functional
[1] = tested on: Streptococcus pneumoniae; assay: (§1) Effect on 0.5 ug/ml sitafloxacin-selected penicillin-resistant Streptococcus pneumoniae 216 mutant after five passages assessed as susceptibility by agar dilution method
[2] = tested on: Streptococcus pneumoniae; assay: Susceptibility of penicillin-resistant Streptococcus pneumoniae 218 by agar dilution method
[3] = tested on: Streptococcus pneumoniae; assay: Susceptibility of penicillin-resistant Streptococcus pneumoniae 217 by agar dilution method
[4] = tested on: Streptococcus pneumoniae; assay: Effect on 0.5 ug/ml moxifloxacin-selected penicillin-resistant Streptococcus pneumoniae 216 mutant after five passages assessed as susceptibility by agar dilution method
[5] = tested on: Streptococcus pneumoniae; assay: Effect on 4 ug/ml levofloxacin-selected penicillin-resistant Streptococcus pneumoniae 334 mutant after five passages assessed as susceptibility by agar dilution method
[6] = tested on: Streptococcus pneumoniae; assay: Effect on 16 ug/ml ciprofloxacin-selected penicillin-resistant Streptococcus pneumoniae 218 mutant after five passages assessed as susceptibility by agar dilution method
[7] = tested on: Streptococcus pneumoniae; assay: Effect on 1 ug/ml moxifloxacin-selected penicillin-resistant Streptococcus pneumoniae 335 mutant after five passages assessed as susceptibility by agar dilution method
[8] = tested on: Streptococcus pneumoniae; assay: Effect on 0.5 ug/ml sitafloxacin-selected penicillin-resistant Streptococcus pneumoniae 218 mutant after five passages assessed as susceptibility by agar dilution method
[9] = tested on: Streptococcus pneumoniae; assay: Effect on 2 ug/ml moxifloxacin-selected penicillin-resistant Streptococcus pneumoniae 216 mutant after five passages assessed as susceptibility by agar dilution method
[10] = tested on: Streptococcus pneumoniae; assay: Effect on 0.5 ug/ml sitafloxacin-selected penicillin-resistant Streptococcus pneumoniae 334 mutant after five passages assessed as susceptibility by agar dilution method
[11] = tested on: Streptococcus pneumoniae; assay: as §1; remark: listed apart in the source
[12] = tested on: Streptococcus pneumoniae; assay: Effect on 32 ug/ml ciprofloxacin-selected penicillin-resistant Streptococcus pneumoniae 216 mutant after five passages assessed as susceptibility by agar dilution method
[13] = tested on: Streptococcus pneumoniae; assay: Effect on 16 ug/ml levofloxacin-selected penicillin-resistant Streptococcus pneumoniae 335 mutant after five passages assessed as susceptibility by agar dilution method
[14] = tested on: Streptococcus pneumoniae; assay: Effect on 32 ug/ml ciprofloxacin-selected penicillin-resistant Streptococcus pneumoniae 334 mutant after five passages assessed as susceptibility by agar dilution method
[15] = tested on: Streptococcus pneumoniae; assay: Susceptibility of penicillin-resistant Streptococcus pneumoniae 334 by agar dilution method
[16] = tested on: Streptococcus pneumoniae; assay: (§2) Effect on 4 ug/ml levofloxacin-selected penicillin-resistant Streptococcus pneumoniae 216 mutant after five passages assessed as susceptibility by agar dilution method
[17] = tested on: Streptococcus pneumoniae; assay: Effect on 0.03 ug/ml DQ113-selected penicillin-resistant Streptococcus pneumoniae 216 mutant after five passages assessed as susceptibility by agar dilution method
[18] = tested on: Streptococcus pneumoniae; assay: Susceptibility of penicillin-resistant Streptococcus pneumoniae 216 by agar dilution method
[19] = tested on: Streptococcus pneumoniae; assay: Effect on 16 ug/ml levofloxacin-selected penicillin-resistant Streptococcus pneumoniae 218 mutant after five passages assessed as susceptibility by agar dilution method
[20] = tested on: Streptococcus pneumoniae; assay: Effect on 0.5 ug/ml […]-selected penicillin-resistant Streptococcus pneumoniae 335 mutant after five passages assessed as susceptibility by agar dilution method
[21] = tested on: Streptococcus pneumoniae; assay: Effect on 2 ug/ml moxifloxacin-selected penicillin-resistant Streptococcus pneumoniae 218 mutant after five passages assessed as susceptibility by agar dilution method
[22] = tested on: Streptococcus pneumoniae; assay: Effect on 0.06 ug/ml DQ113-selected penicillin-resistant Streptococcus pneumoniae 218 mutant after five passages assessed as susceptibility by agar dilution method
[23] = tested on: Enterococcus; assay: Susceptibility of drug-selected vancomycin-resistant Enterococcus species mutant by agar dilution method
[24] = tested on: Enterococcus; assay: Susceptibility of vancomycin-resistant Enterococcus species single-step mutant by agar dilution method
[25] = tested on: Streptococcus pneumoniae; assay: Effect on 0.06 ug/ml DQ113-selected penicillin-resistant Streptococcus pneumoniae 216 mutant after five passages assessed as susceptibility by agar dilution method
[26] = tested on: Streptococcus pneumoniae; assay: Effect on 0.06 ug/ml DQ113-selected penicillin-resistant Streptococcus pneumoniae 334 mutant after five passages assessed as susceptibility by agar dilution method
[27] = tested on: Streptococcus pneumoniae; assay: Effect on 8 ug/ml ciprofloxacin-selected penicillin-resistant Streptococcus pneumoniae 216 mutant after five passages assessed as susceptibility by agar dilution method
[28] = tested on: Streptococcus pneumoniae; assay: as §2; remark: listed apart in the source
[29] = tested on: Streptococcus pneumoniae; assay: Effect on 16 ug/ml ciprofloxacin-selected penicillin-resistant Streptococcus pneumoniae 335 mutant after five passages assessed as susceptibility by agar dilution method
[30] = tested on: Streptococcus pneumoniae; assay: Susceptibility of penicillin-resistant Streptococcus pneumoniae 335 by agar dilution method
[31] = tested on: Streptococcus pneumoniae; assay: Effect on 0.06 ug/ml DQ113-selected penicillin-resistant Streptococcus pneumoniae 335 mutant after five passages assessed as susceptibility by agar dilution method
[32] = tested on: Streptococcus pneumoniae; assay: Effect on 1 ug/ml moxifloxacin-selected penicillin-resistant Streptococcus pneumoniae 334 mutant after five passages assessed as susceptibility by agar dilution method
[33] = tested on: Staphylococcus aureus; assay: Susceptibility of methicillin-sensitive/resistant Staphylococcus aureus single-step mutant by agar dilution method

Measured: MIC

N[C@@H]1CN(c2c(F)cc3c(=O)c(C(=O)O)cn(C4C[C@@H]4F)c3c2Cl)CC12CC2 (single isomer, unassigned) [SITAFLOXACIN ANHYDROUS]
4 µg/mL: [9] | [13] | [24]
0.5 µg/mL: [4] | [5] | [7] | [10] | [14] | [16] | [19] | [25] | [26] | [27] | [29] | [31]
8 µg/mL: [23]; read-out: MIC
2 µg/mL: [6] | [11] | [20]
0.25 µg/mL: [17] | [33]
0.06 µg/mL: [15] | [18]
0.12 µg/mL: [2] | [3] | [28] | [30] | [32]
1 µg/mL: [1] | [8] | [12] | [21] | [22]

O=C(O)c1cn(C2CC2)c2cc(N3CCNCC3)c(F)cc2c1=O [CIPROFLOXACIN]
32 µg/mL: [1] | [5] | [11] | [12] | [14] | [27]
64 µg/mL: [10]
16 µg/mL: [8] | [16] | [20] | [24] | [25] | [29]
4 µg/mL: [4] | [7] | [17] | [28] | [31]
8 µg/mL: [19] | [22] | [26] | [32]
1 µg/mL: [2] | [3] | [15] | [30]
128 µg/mL: [6] | [9] | [13] | [21]

Cc1c(N2C[C@@H](F)[C@@H](C3(N)CC3)C2)c(F)c(N)c2c(=O)c(C(=O)O)cn([C@@H]3C[C@@H]3F)c12 [DQ-113]
0.001 µg/mL: [18]
8 µg/mL: [23]; read-out: MIC
0.004 µg/mL: [2] | [3] | [15]
0.002 µg/mL: [28] | [30]
0.015 µg/mL: [4] | [8] | [12] | [19] | [27] | [31] | [32]
0.12 µg/mL: [9] | [13]
0.03 µg/mL: [1] | [5] | [7] | [11] | [14] | [20] | [21] | [22] | [33]
0.007 µg/mL: [16] | [17] | [29]
2 µg/mL: [24]
0.06 µg/mL: [6] | [10] | [25] | [26]

C[C@H]1COc2c(N3CCN(C)CC3)c(F)cc3c(=O)c(C(=O)O)cn1c23.C[C@H]1COc2c(N3CCN(C)CC3)c(F)cc3c(=O)c(C(=O)O)cn1c23.O [LEVOFLOXACIN]
2 µg/mL: [33]
64 µg/mL: [9] | [13]
16 µg/mL: [24]
256 µg/mL: [23]; read-out: MIC

COc1c(N2C[C@@H]3CCCN[C@@H]3C2)c(F)cc2c(=O)c(C(=O)O)cn(C3CC3)c12 [MOXIFLOXACIN]
8 µg/mL: [9] | [13] | [24]
0.5 µg/mL: [12] | [29] | [32] | [33]
64 µg/mL: [23]
4 µg/mL: [6] | [10] | [21]
0.12 µg/mL: [2] | [15] | [30]
0.06 µg/mL: [18]
1 µg/mL: [4] | [8] | [14] | [19] | [20] | [22] | [31]
0.25 µg/mL: [3] | [16] | [17] | [28]
2 µg/mL: [1] | [5] | [7] | [11] | [25] | [26] | [27]
